Here are results for 27 compounds from patent US10800792B2, “Inhibitors of Bruton's tyrosine kinase and method of their use” (JANSSEN PHARMACEUTICA NV, priority 2015, dated 2020).

A value given as a limit tells only on which side of the number the result lay.

unphosphorylated-BTK kinase domain (UP-BTK), GST-tagged human BTK (389-659aa), sequence (Q06187 389-659): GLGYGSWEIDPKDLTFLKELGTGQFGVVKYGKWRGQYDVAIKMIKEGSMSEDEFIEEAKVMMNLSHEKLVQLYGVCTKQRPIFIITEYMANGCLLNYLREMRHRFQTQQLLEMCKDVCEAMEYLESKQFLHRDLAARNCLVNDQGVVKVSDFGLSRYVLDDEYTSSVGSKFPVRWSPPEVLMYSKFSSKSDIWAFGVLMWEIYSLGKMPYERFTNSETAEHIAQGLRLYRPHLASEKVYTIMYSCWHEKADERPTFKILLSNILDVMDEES

One test has as its target unphosphorylated-BTK kinase domain (UP-BTK), GST-tagged human BTK (389-659aa) (Homo sapiens (Human), UniProt Q06187). Nature of the test: BTK kinase Lanthascreen binding assay. Particulars: Lanthascreen tracer competition, 60 minutes incubation; pIC50 = negative log of the IC50 in molar. In outline: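 Lanthascreen competition binding; test compound vs fluorescent tracer on unphosphorylated BTK. Output: pIC50 (−log IC50, M).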
A general note: In TR-FRET formats the signal depends on donor and acceptor labels being close together.
As to `C=CC(=O)N1CCC[C@@H](NC(=O)c2sc3nccc4c3c2NC(=O)N4c2cccc(C3CCOCC3)c2)C1` [Example 708, (R)—N-(1-Acryloylpiperidin-3-yl)-4-oxo-5-(3-(tetrahydro-2H-pyran-4-yl)phenyl)-4,5-dihydro-3H-1-thia-3,5,8-triazaacenaphthylene-2-carboxamide], the “BTK_I_binding pIC50” value is 6.5. `C=CC(=O)N1CCC[C@@H](NC(=O)c2sc3nccc4c3c2NC(=O)N4c2ccnc(-c3ccccn3)c2)C1` [Example 709, (R)-5-([2,2′-Bipyridin]-4-yl)-N-(1-acryloylpiperidin-3-yl)-4-oxo-4,5-dihydro-3H-1-thia-3,5,8-triazaacenaphthylene-2-carboxamide]: the “BTK_I_binding pIC50” value is on record as 6.7.

On to `CN1CCC[C@@H](NC(=O)c2sc3nccc4c3c2NC(=O)N4c2cccc(-c3cccc(F)c3F)c2)C1` [Example 710, (R)-5-(2′,3′-Difluoro-[1,1′-biphenyl]-3-yl)-N-(1-methylpiperidin-3-yl)-4-oxo-4,5-dihydro-3H-1-thia-3,5,8-triazaacenaphthylene-2-carboxamide], for which the “BTK_I_binding pIC50” value turned out to be 7.4. On the same count and under the same terms, as for `Cc1nc(Oc2ccccc2)ccc1N1C(=O)Nc2c(C(=O)N[C@@H]3CCCNC3)sc3nccc1c23` [Example 711, (R)-5-(2-methyl-6-phenoxypyridin-3-yl)-4-oxo-N-(piperidin-3-yl)-4,5-dihydro-3H-1-thia-3,5,8-triazaacenaphthylene-2-carboxamide], the figure is 6.6. Same read-out and setting: for `CNCC(=O)N1CCC[C@@H](NC(=O)c2sc3nccc4c3c2NC(=O)N4c2ccnc(-c3ccccc3)c2)C1` [Example 714, (R)—N-(1-(Methylglycyl)piperidin-3-yl)-4-oxo-5-(2-phenylpyridin-4-yl)-4,5-dihydro-3H-1-thia-3,5,8-triazaacenaphthylene-2-carboxamide] the value was 6.5; for `C=CC(=O)N1C[C@@H](O)[C@@H](NC(=O)c2sc3nccc4c3c2NC(=O)N4c2ccnc(-c3ccccc3)c2)C1` [Example 718, N-((3S,4R)-1-Acryloyl-4-hydroxypyrrolidin-3-yl)-4-oxo-5-(2-phenylpyridin-4-yl)-4,5-dihydro-3H-1-thia-3,5,8-triazaacenaphthylene-2-carboxamide], 6.3; for `O=C(N[C@@H]1CCCNC1)c1sc2nccc3c2c1NC(=O)N3c1ccnc(C2CCCC2)c1` [Example 720, (R)-5-(2-Cyclopentylpyridin-4-yl)-4-oxo-N-(piperidin-3-yl)-4,5-dihydro-3H-1-thia-3,5,8-triazaacenaphthylene-2-carboxamide], 6.2. Same read-out and setting: as for `CC(C)Cc1cccc(N2C(=O)Nc3c(C(=O)N[C@@H]4CCCNC4)sc4nccc2c34)c1` [Example 721, (R)-5-(3-Isobutylphenyl)-4-oxo-N-(piperidin-3-yl)-4,5-dihydro-3H-1-thia-3,5,8-triazaacenaphthylene-2-carboxamide], the figure is 6.2; as for `Cc1ccc(-c2ccccc2)cc1N1C(=O)Nc2c(C(=O)N[C@@H]3CCCNC3)sc3nccc1c23` [Example 725, (R)-5-(4-Methyl-[1,1′-biphenyl]-3-yl)-4-oxo-N-(piperidin-3-yl)-4,5-dihydro-3H-1-thia-3,5,8-triazaacenaphthylene-2-carboxamide], 6.1. Turning to `CC(C)c1cc(N2C(=O)Nc3c(C(=O)N[C@@H]4CCCNC4)sc4nccc2c34)ccn1` [Example 727, (R)-5-(2-Isopropylpyridin-4-yl)-4-oxo-N-(piperidin-3-yl)-4,5-dihydro-3H-1-thia-3,5,8-triazaacenaphthylene-2-carboxamide], the “BTK_I_binding pIC50” value is reported as less than 6. On the same count and under the same terms, for `Cc1cnc(-c2ccccc2)cc1N1C(=O)Nc2c(C(=O)N[C@@H]3CCCNC3)sc3nccc1c23` [Example 729, (R)-5-(5-Methyl-2-phenylpyridin-4-yl)-4-oxo-N-(piperidin-3-yl)-4,5-dihydro-3H-1-thia-3,5,8-triazaacenaphthylene-2-carboxamide] the value was less than 6; for `O=C(N[C@@H]1CCCNC1)c1sc2nccc3c2c1NC(=O)N3c1ccnc(C2CCCCC2)c1` [Example 731, (R)-5-(2-Cyclohexylpyridin-4-yl)-4-oxo-N-(piperidin-3-yl)-4,5-dihydro-3H-1-thia-3,5,8-triazaacenaphthylene-2-carboxamide], less than 6.

Consider `C=CC(=O)N1CCC[C@@H](NC(=O)c2sc3nccc4c3c2NC(=O)N4c2ccc(OC(C)C)nc2C)C1` [Example 732, (R)—N-(1-Acryloylpiperidin-3-yl)-5-(6-isopropoxy-2-methylpyridin-3-yl)-4-oxo-4,5-dihydro-3H-1-thia-3,5,8-triazaacenaphthylene-2-carboxamide], for which the “BTK_I_binding pIC50” value is less than 6. `Cc1c(N2C(=O)Nc3c(C(=O)N[C@@H]4CCCNC4)sc4nccc2c34)ccnc1-c1ccccc1` [Example 733, (R)-5-(3-Methyl-2-phenylpyridin-4-yl)-4-oxo-N-(piperidin-3-yl)-4,5-dihydro-3H-1-thia-3,5,8-triazaacenaphthylene-2-carboxamide]: the “BTK_I_binding pIC50” value is on record as less than 6. With `C=CC(=O)N1CCC[C@@H](NC(=O)c2sc3nccc4c3c2NC(=O)N4c2cc(C)nc(-c3ccccc3)c2)C1` [Example 734, (R)—N-(1-Acryloylpiperidin-3-yl)-5-(2-methyl-6-phenylpyridin-4-yl)-4-oxo-4,5-dihydro-3H-1-thia-3,5,8-triazaacenaphthylene-2-carboxamide], the “BTK_I_binding pIC50” value is less than 6. The same measure, in the same setting: as for `O=C(N[C@@H]1CCCNC1)c1sc2nccc3c2c1NC(=O)N3c1cccc(C2CCOCC2)c1` [Example 738, (R)-4-Oxo-N-(piperidin-3-yl)-5-(3-(tetrahydro-2H-pyran-4-yl)phenyl)-4,5-dihydro-3H-1-thia-3,5,8-triazaacenaphthylene-2-carboxamide], the figure is less than 6; as for `CC(C)(C)OC(=O)N1CCC[C@@H](NC(=O)c2sc3nccc4c3c2NC(=O)N4c2cccc(C3CCOCC3)c2)C1` [Example 739, (R)-tert-Butyl 3-(4-oxo-5-(3-(tetrahydro-2H-pyran-4-yl)phenyl)-4,5-dihydro-3H-1-thia-3,5,8-triazaacenaphthylene-2-carboxamido)piperidine-1-carboxylate], less than 6.

For the compound `O=C(N[C@@H]1CCCNC1)c1sc2nccc3c2c1NC(=O)N3c1cnnc(-c2ccccc2)c1` [Example 740, (R)-4-Oxo-5-(6-phenylpyridazin-4-yl)-N-(piperidin-3-yl)-4,5-dihydro-3H-1-thia-3,5,8-triazaacenaphthylene-2-carboxamide], the “BTK_I_binding pIC50” value is on record as less than 6. On the same count and under the same terms, for `O=C(N[C@@H]1CCNC1)c1sc2nccc3c2c1NC(=O)N3c1ccc(Oc2ccccc2)nc1` [Example 741, (R)-4-Oxo-5-(6-phenoxypyridin-3-yl)-N-(pyrrolidin-3-yl)-4,5-dihydro-3H-1-thia-3,5,8-triazaacenaphthylene-2-carboxamide] the value was 5.9; for `O=C(N[C@@H]1CCCNC1)c1sc2nccc3c2c1NC(=O)N3c1ccc(OC2CCC2)nc1` [Example 744, (R)-5-(6-Cyclobutoxypyridin-3-yl)-4-oxo-N-(piperidin-3-yl)-4,5-dihydro-3H-1-thia-3,5,8-triazaacenaphthylene-2-carboxamide], 5.7; for `C=CC(=O)N1CC[C@@H](NC(=O)c2sc3nccc4c3c2NC(=O)N4c2cnc(Oc3ccccc3)nc2)C1` [Example 748, (R)—N-(1-Acryloylpyrrolidin-3-yl)-4-oxo-5-(2-phenoxypyrimidin-5-yl)-4,5-dihydro-3H-1-thia-3,5,8-triazaacenaphthylene-2-carboxamide], 6.8. The same measure, in the same setting: as for `C=CC(=O)N1CC[C@@H](NC(=O)c2sc3nccc4c3c2NC(=O)N4c2ncc(Oc3ccccc3)cn2)C1` [Example 749, (R)—N-(1-Acryloylpyrrolidin-3-yl)-4-oxo-5-(5-phenoxypyrimidin-2-yl)-4,5-dihydro-3H-1-thia-3,5,8-triazaacenaphthylene-2-carboxamide], the figure is 7.3.

Still in this test, the particulars now being: Lanthascreen tracer competition, 60 minutes incubation; pIC50 = negative log of the IC50 in molar; read-out: BTK_I_binding pIC50 (converted).
In the case of `O=C(N[C@@H]1CCCNC1)c1sc2nccc3c2c1NC(=O)N3c1ncc(Oc2ccccc2)cn1` [Example 719, (R)-4-Oxo-5-(5-phenoxypyrimidin-2-yl)-N-(piperidin-3-yl)-4,5-dihydro-3H-1-thia-3,5,8-triazaacenaphthylene-2-carboxamide], the IC50 is 501 nM. Same read-out and setting: for `O=C(N[C@@H]1CCCNC1)c1sc2nccc3c2c1NC(=O)N3c1cc(-c2ccccc2)ncn1` [Example 723, (R)-4-Oxo-5-(6-phenylpyrimidin-4-yl)-N-(piperidin-3-yl)-4,5-dihydro-3H-1-thia-3,5,8-triazaacenaphthylene-2-carboxamide] the value was 794 nM; for `Cc1cc(OCCOC(C)C)ccc1N1C(=O)Nc2c(C(=O)N[C@@H]3CCCNC3)sc3nccc1c23` [Example 730, (R)-5-(4-(2-Isopropoxyethoxy)-2-methylphenyl)-4-oxo-N-(piperidin-3-yl)-4,5-dihydro-3H-1-thia-3,5,8-triazaacenaphthylene-2-carboxamide], greater than 1000 nM; for `Cc1cc(N2C(=O)Nc3c(C(=O)N[C@@H]4CCCNC4)sc4nccc2c34)cc(-c2ccccc2)n1` [Example 735, (R)-5-(2-Methyl-6-phenylpyridin-4-yl)-4-oxo-N-(piperidin-3-yl)-4,5-dihydro-3H-1-thia-3,5,8-triazaacenaphthylene-2-carboxamide], greater than 1000 nM. As for `Cc1nc(Oc2ccccc2)ccc1N1C(=O)Nc2c(C(=O)N[C@@H]3CCCN(C(=O)OC(C)(C)C)C3)sc3nccc1c23` [Example 743, (R)-tert-Butyl 3-(5-(2-methyl-6-phenoxypyridin-3-yl)-4-oxo-4,5-dihydro-3H-1-thia-3,5,8-triazaacenaphthylene-2-carboxamido)piperidine-1-carboxylate], the IC50 is 1580 nM.
